Data from ChEMBL document CHEMBL4325868, “Design, synthesis and antitubercular activity of 4-alkoxy-triazoloquinolones able to inhibit the M. tuberculosis DNA gyrase” (Eur J Med Chem, 2019).
In brackets after ≈: the same amount, converted by molar mass.

How the values were obtained:
Assay type in all cases: functional
[1] = system: Mycobacterium tuberculosis; experiment: Antitubercular activity against multidrug resistant Mycobacterium tuberculosis isolate 571 after 7 days by resazurin microtiter assay; details: isolate 571, 168 h
[2] = system: Mycobacterium tuberculosis; experiment: Antitubercular activity against multidrug resistant Mycobacterium tuberculosis isolate 7 after 7 days by resazurin microtiter assay; details: isolate 7, 168 h
[3] = system: Mycobacterium tuberculosis; experiment: Antitubercular activity against streptomycin resistant Mycobacterium tuberculosis isolate 157 after 7 days by resazurin microtiter assay; details: isolate 157, 168 h
[4] = system: Mycobacterium tuberculosis; experiment: Antitubercular activity against streptomycin resistant Mycobacterium tuberculosis isolate 204 after 7 days by resazurin microtiter assay; details: isolate 204, 168 h
[5] = system: Mycobacterium tuberculosis; experiment: Antitubercular activity against multidrug resistant Mycobacterium tuberculosis isolate 1120 after 7 days by resazurin microtiter assay; details: isolate 1120, 168 h
[6] = system: Mycobacterium tuberculosis; experiment: Antitubercular activity against multidrug resistant Mycobacterium tuberculosis isolate 512 after 7 days by resazurin microtiter assay; details: isolate 512, 168 h
[7] = system: Mycobacterium tuberculosis; experiment: Antitubercular activity against ciprofloxacin resistant Mycobacterium tuberculosis isolate 1670 after 7 days by resazurin microtiter assay; details: isolate 1670, 168 h
[8] = system: Mycobacterium tuberculosis; experiment: Antitubercular activity against rifampicin/ethambutol resistant Mycobacterium tuberculosis isolate 1726 after 7 days by resazurin microtiter assay; details: isolate 1726, 168 h
[9] = system: Mycobacterium tuberculosis; experiment: Antitubercular activity against isoniazid/ethambutol resistant Mycobacterium tuberculosis isolate 368 after 7 days by resazurin microtiter assay; details: isolate 368, 168 h
[10] = system: Mycobacterium tuberculosis; experiment: Antitubercular activity against isoniazid resistant Mycobacterium tuberculosis isolate 1358 after 7 days by resazurin microtiter assay; details: isolate 1358, 168 h
[11] = system: Mycobacterium tuberculosis; experiment: Antitubercular activity against streptomycin/isoniazid/ethambutol resistant Mycobacterium tuberculosis isolate 1097 after 7 days by resazurin microtiter assay; details: isolate 1097, 168 h
[12] = system: Mycobacterium tuberculosis; experiment: Antitubercular activity against rifampicin resistant Mycobacterium tuberculosis isolate 952 after 7 days by resazurin microtiter assay; details: isolate 952, 168 h
[13] = system: Mycobacterium tuberculosis; experiment: Antitubercular activity against ciprofloxacin resistant Mycobacterium tuberculosis isolate 600 after 7 days by resazurin microtiter assay; details: isolate 600, 168 h
[14] = system: Mycobacterium tuberculosis; experiment: Antitubercular activity against streptomycin resistant Mycobacterium tuberculosis isolate 203 after 7 days by resazurin microtiter assay; details: isolate 203, 168 h

SMILES	MIC [1]	MIC [2]	MIC [3]	MIC [4]	MIC [5]	MIC [6]	MIC [7]	MIC [8]	MIC [9]	MIC [10]	MIC [11]	MIC [12]	MIC [13]	MIC [14]
COc1cc2c(=O)c(C(=O)O)cn(C)c2c2nnn(C)c12	16 µM (≈ 4.61 µg/mL)	4 µM (≈ 1.15 µg/mL)	8 µM (≈ 2.31 µg/mL)	8 µM (≈ 2.31 µg/mL)	4 µM (≈ 1.15 µg/mL)	8 µM (≈ 2.31 µg/mL)	16 µM (≈ 4.61 µg/mL)	16 µM (≈ 4.61 µg/mL)	8 µM (≈ 2.31 µg/mL)	16 µM (≈ 4.61 µg/mL)	32 µM (≈ 9.22 µg/mL)	32 µM (≈ 9.22 µg/mL)	16 µM (≈ 4.61 µg/mL)	16 µM (≈ 4.61 µg/mL)
O=C(O)c1cn(C2CC2)c2cc(N3CCNCC3)c(F)cc2c1=O [CIPROFLOXACIN]	–	–	–	–	–	8 µM (≈ 2.65 µg/mL)	16 µM (≈ 5.3 µg/mL)	–	–	–	–	–	4 µM (≈ 1.33 µg/mL)	–
